This note sets out measurements from patent US20090214514A1, “GUS3 NEUROPEPTIDES FOR REGULATING HYPOTHALAMIC FUNCTION” (priority 2004, published 2009).

The assay is described as follows: Standard 24-hour thirst assay: acute effect of icv GUS3 peptides on food and water intake. The format is in vivo, Sprague Dawley rats. To be noted: rats thirsted 24 h, not food deprived, single ICV injection in 5 uL vehicle 15 min before reintroduction of water, intake recorded at 30 min, 60 min, 2 h, 3 h; for effect on food intake: vs vehicle (FIG. 8A); for effect on water intake: vs vehicle (FIG. 8B). As to the method:
Animals are injected with the substances after a 24 hr thirst period and food and water intake is monitored at 30 minutes, 60 minutes, 2 hours, 3 hours, and 24 hours.
Thirty-six regular Sprague Dawley rats (Charles River, Germany) weighing approximately 250 gram at the start of the experiment were used for these experiments. All animals were kept under a 12/12 L/D cycle (lights on at 0300) and in temperature and humidity controlled rooms. The animals were allowed a 5 day acclimatisation period after arrival to the test facility in order to reduce stress effects.
All experiments are conducted in accordance with internationally accepted principles for the care and use of laboratory animals and are approved by the Danish committee for animal research. Under Hypnorm Dormicum (Nomeco A/S, Copenhagen Denmark) anesthesia all animals were stereotaxically equipped with a stainless steel cannula aimed at the lateral ventricle (1 mm caudal and 1.5 mm lateral from bregma and 4 mm depth). During a 7 day recovery period, the rats were handled daily in order to accustom them to the experimental procedure.
The following peptides were ordered from Schafer-N, Copenhagen (see also example 2):
The animals were divided into 4 weight-matched groups prior to the test: • Group 4 Vehicle control (5 μL PBS) • Group 3 GUS3 C (10 ug) icv in 5 uL vehicle • Group 2 GUS3 M (1 ug) icv in 5 uL vehicle • Group 1 GUS3 N (10 ug) icv in 5 uL vehicle
The rats were thirsted but not food deprived twenty-four hours before the experiment. Fifteen minutes prior to reintroduction of water (time=0) the animals received an ICV injection of […] of one of the 3 peptides dissolved in 5 μL vehicle or of vehicle alone. Water and food intake was recorded at time=30 minutes, 60 minutes, 2 hour, 3 hours and 24 hours.
The data are evaluated by relevant statistical analyses (Statview software). Results are presented as mean±SEM (standard error of the mean). Statistical evaluation of the data is carried out using one-way analysis of variance (ANOVA) with appropriate post-hoc analysis between control and treatment groups in cases where statistical significance is established (p<0.05; Scheffe or Bonferoni).

No end group written: not given here.

Regarding “TIARQTARCAC (listed as Homo sapiens) [GUS3 M]”, the “effect on food intake” value is on record as “did not seem to affect” and the “effect on water intake” value is “did not seem to affect”.
For the substance “ac-QFLKEGQLAAGTCEIVTLDRDSSQP (Ac-QFLKEGQLAAGTCEIVTLDRDSSQP; listed as Homo sapiens) [GUS3 N]”, the “effect on food intake” value was “did not seem to affect” and the “effect on water intake” value is recorded as “did not seem to affect”.
